Results from patent US9586956B2, “Isoquinoline and naphthyridine derivatives” (Genentech, Inc., priority 2012, dated 2017).

Experiments:
[1] = target: T1, purified human MAP4K4 kinase domain (Homo sapiens, UniProt O95819); experiment: MAP4K4 Inhibition Assay Protocol No. 1 (Caliper LabChip, moesin-derived peptide phosphorylation); assay type: biochemical; conditions: Assay 1; 1 nM enzyme, 10 uM ATP, 45 min
T1 construct: purified human MAP4K4 kinase domain
In short: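 1 nM enzyme with 1 uM 5-carboxyfluorescein-labelled moesin peptide and 10 uM ATP in 50 mM Hepes pH 7.2, 10 mM MgCl2, 2% DMSO, 45 min at room temperature, then EDTA stop. Phosphorylated fraction of peptide measured by microfluidic mobility shift; IC50 from four-parameter fit.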

[2] = target: T1, purified human MAP4K4 kinase domain; experiment: MAP4K4 Inhibition Assay Protocol No. 2 (Z'-LYTE FRET); assay type: biochemical; conditions: Assay 2; 1 nM enzyme, 10 uM ATP, 60 min
From the text: The kinase activity of purified human MAP4K4 kinase domain was monitored using Z'-LYTE™ technology from Invitrogen to determine inhibition constants (IC50) of small molecule inhibitors. The Z'-LYTE™ biochemical assay employs a fluorescence-based, coupled-enzyme format and is based on the differential sensitivity of phosphorylated and non-phosphorylated peptides to proteolytic cleavage. In the primary reaction, the kinase transfers the gamma-phosphate of ATP to a single tyrosine, serine or threonine residue in a synthetic FRET-peptide. In the secondary reaction, a site-specific protease recognizes and cleaves non-phosphorylated FRET-peptides. Phosphorylation of FRET-peptides suppresses cleavage by the Development Reagent. Cleavage disrupts FRET between the donor (i.e., coumarin) and acceptor (i.e., fluorescein) fluorophores on the FRET-peptide, whereas uncleaved, phosphorylated FRET-peptides maintain FRET. To determine inhibition constants (IC50), compounds were serially diluted in DMSO and added to 10 uL kinase reactions containing 1 nM purified MAP4K4 enzyme, 2 uM ser/thr7 Z'-LYTE™ substrate, 10 uMATP, 50 mM Hepes (pH 7.5), 10 mM MgCl2, 1 mM EGTA, 0.01% Brij-35, and 2% DMSO. Reactions were incubated at room temperature in Corning Black 384 well plates (Corning#3573) for 60 minutes and stopped by the addition of 5 uL of Z'-LYTE™ development reagent A and incubated at room temp for 60 minutes. The plate is then analyzed on Perkin Elmer Envision by FRET mode. The high ratio of coumarin/fluorescein represents 0% phosphorylation rate while low ratio of coumarin/fluorescein represents 100% phosphorylation rate. The following equations are used to determine extent of peptide phosphorylation or inhibition: […]

T1 sequence (O95819 25-289 limits assumed): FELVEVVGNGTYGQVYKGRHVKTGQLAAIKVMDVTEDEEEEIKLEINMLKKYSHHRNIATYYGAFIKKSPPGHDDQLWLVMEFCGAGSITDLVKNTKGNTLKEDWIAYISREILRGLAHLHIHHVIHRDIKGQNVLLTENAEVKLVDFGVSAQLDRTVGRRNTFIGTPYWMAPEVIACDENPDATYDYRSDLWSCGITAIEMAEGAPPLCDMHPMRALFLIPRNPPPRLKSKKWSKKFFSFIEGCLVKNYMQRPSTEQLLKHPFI

IC50 [1] [µM]	IC50 [2] [µM]	Compound
4.1	3	CNCc1cnc(N)c2cc(-c3cccc(F)c3)ccc12 [Example 129, 7-(3-fluorophenyl)-4-(methylaminomethyl) isoquinolin-1-amine]
0.00419	0.0044	Nc1ncc(C(=O)N[C@H]2C[C@H](O)C2)c2ccc(-c3cccc(F)c3)nc12 [Example 14b, 8-amino-2-(3-fluorophenyl)-N-(trans-3-hydroxycyclobutyl)-1,7-naphthyridine-5-carboxamide]
0.0602	0.0919	CCNC(=O)NCC(CO)NC(=O)c1cnc(N)c2cc(-c3cccc(F)c3)ccc12 (centres unmarked) [Example 133, 1-amino-N-[1-[(ethylcarbamoyl-amino)methyl]-2-hydroxy-ethyl]-7-(3-fluorophenyl) isoquinoline-4-carboxamide]
0.0609	0.0665	Nc1ncc(C(=O)NC(CO)CNC(=O)NC2CC2)c2ccc(-c3cccc(F)c3)cc12 (centres unmarked) [Example 130, 1-amino-N-[1-[(cyclopropyl-carbamoylamino)methyl]-2-hydroxy-ethyl]-7-(3-fluorophenyl) isoquinoline-4-carboxamide]
0.0414	0.0294	Nc1ncc(CNC(=O)C2CC2)c2ccc(-c3cccc(F)c3)cc12 [Example 6, N-[[1-amino-7-(3-fluorophenyl)-4-isoquinolyl]methyl]cyclopropanecarboxamide]
0.168	0.174	CCNC(=O)N1CC(NC(=O)c2cnc(N)c3cc(-c4cccc(F)c4)ccc23)C1 [Example 131, 1-amino-N-[1-(ethylcarbamoyl)azetidin-3-yl]-7-(3-fluorophenyl) isoquinoline-4-carboxamide]
0.18	0.191	Nc1ncc(C(=O)NC2CN(C(=O)NC3CC3)C2)c2ccc(-c3cccc(F)c3)cc12 [Example 132, 1-amino-N-[1-(cyclopropyl-carbamoyl)azetidin-3-yl]-7-(3-fluorophenyl)isoquinoline-4-carboxamide]
0.0705	0.0724	COCC(=O)N1CC(NC(=O)c2cnc(N)c3cc(-c4cccc(F)c4)ccc23)C1 [Example 128, 1-amino-7-(3-fluorophenyl)-N-[1-(2-methoxyacetyl)azetidin-3-yl]isoquinoline-4-carboxamide]
0.000464	0.000648	CCOC(=O)c1cnc(N)c2nc(-c3cccc(F)c3)ccc12 [Example 118, ethyl 8-amino-2-(3-fluorophenyl)-1,7-naphthyridine-5-carboxylate]
0.869	0.776	CN1CC(NC(=O)c2cnc(N)c3cc(-c4cccc(F)c4)ccc23)C1 [Example 7, 1-amino-7-(3-fluorophenyl)-N-(1-methylazetidin-3-yl)isoquinoline-4-carboxamide]
–	0.0244	Nc1ncc(C(=O)NC2CN(CC(F)(F)F)C2)c2ccc(-c3cccc(F)c3)nc12 [Example 22, 8-amino-2-(3-fluorophenyl)-N-(1-(2,2,2-trifluoroethyl)azetidin-3-yl)-1,7-naphthyridine-5-carboxamide]
–	0.00569	Nc1ncc(C(=O)NC2COC2)c2ccc(-c3cccc(F)c3)nc12 [Example 38, 8-amino-2-(3-fluorophenyl)-N-(oxetan-3-yl)-1,7-naphthyridine-5-carboxamide]
–	0.00411	CC(=O)N1CC(NC(=O)c2cnc(N)c3nc(-c4cccc(F)c4)ccc23)C1 [Example 26, N-(1-acetylazetidin-3-yl)-8-amino-2-(3-fluorophenyl)-1,7-naphthyridine-5-carboxamide]
–	0.0608	CCC(=O)NC1CN(C(=O)c2cnc(N)c3nc(-c4cccc(F)c4)ccc23)C1 [Example 29, N-(1-(8-amino-2-(3-fluorophenyl)-1,7-naphthyridine-5-carbonyl)azetidin-3-yl)propionamide]
–	0.0068	Nc1ncc(C(=O)NC2CN(C(=O)CN3CCOCC3)C2)c2ccc(-c3cccc(F)c3)nc12 [Example 20, 8-amino-2-(3-fluorophenyl)-N-(1-(2-morpholinoacetyl)azetidin-3-yl)-1,7-naphthyridine-5-carboxamide]
–	0.0031	CCOC(=O)c1cnc(N)c2nc(-c3cccc(C(=O)N(C)C)c3)ccc12 [Example 144, ethyl 8-amino-2-[3-(dimethyl-carbamoyl)phenyl]-1,7-naphthyridine-5-carboxylate]
–	0.00145	CCOC(=O)c1cnc(N)c2nc(-c3cccc(C#N)c3)ccc12 [Example 147, ethyl 8-amino-2-(3-cyanophenyl)-1,7-naphthyridine-5-carboxylate]
–	0.919	Nc1ncc(CNC(=O)c2ccccc2)c2ccc(-c3cccc(F)c3)cc12 [Example 136, N-[[1-amino-7-(3-fluoro-phenyl)-4-isoquinolyl]methyl]benzamide]
–	0.0016	CNC(=O)N1CC(NC(=O)c2cnc(N)c3nc(-c4cccc(F)c4)ccc23)C1 [Example 34, 8-amino-2-(3-fluorophenyl)-N-(1-(methylcarbamoyl)azetidin-3-yl)-1,7-naphthyridine-5-carboxamide]
–	0.0139	Nc1ncc(C(=O)N2CC(NC(=O)C3CC3)C2)c2ccc(-c3cccc(F)c3)nc12 [Example 30, N-(1-(8-amino-2-(3-fluorophenyl)-1,7-naphthyridine-5-carbonyl)azetidin-3-yl)cyclopropanecarboxamide]
1.2	0.756	CCN1CC(NC(=O)c2cnc(N)c3cc(-c4cccc(F)c4)ccc23)C1 [Example 127, 1-amino-N-(1-ethylazetidin-3-yl)-7-(3-fluorophenyl) isoquinoline-4-carboxamide]
–	0.00853	CCOC(=O)c1cnc(N)c2nc(-c3cccc(OC)c3)ccc12 [Example 148, ethyl 8-amino-2-(3-methoxy-phenyl)-1,7-naphthyridine-5-carboxylate]

Compound	IC50 [1] [µM]	IC50 [2] [µM]
CNC(=O)N1CC(NC(=O)c2cnc(N)c3cc(-c4cccc(F)c4)ccc23)C1 [Example 8, 1-amino-7-(3-fluorophenyl)-N-[1-(methylcarbamoyl)azetidin-3-yl]isoquinoline-4-carboxamide]	0.0112	0.015
